Data reported in ChEMBL document CHEMBL1629515, “Synthesis and biological evaluation of oleanolic acid derivatives as inhibitors of protein tyrosine phosphatase 1B” (J Nat Prod, 2010).

Target: T1, Tyrosine-protein phosphatase non-receptor type 1 (Homo sapiens, UniProt P18031)
T1 sequence (P18031 whole entry): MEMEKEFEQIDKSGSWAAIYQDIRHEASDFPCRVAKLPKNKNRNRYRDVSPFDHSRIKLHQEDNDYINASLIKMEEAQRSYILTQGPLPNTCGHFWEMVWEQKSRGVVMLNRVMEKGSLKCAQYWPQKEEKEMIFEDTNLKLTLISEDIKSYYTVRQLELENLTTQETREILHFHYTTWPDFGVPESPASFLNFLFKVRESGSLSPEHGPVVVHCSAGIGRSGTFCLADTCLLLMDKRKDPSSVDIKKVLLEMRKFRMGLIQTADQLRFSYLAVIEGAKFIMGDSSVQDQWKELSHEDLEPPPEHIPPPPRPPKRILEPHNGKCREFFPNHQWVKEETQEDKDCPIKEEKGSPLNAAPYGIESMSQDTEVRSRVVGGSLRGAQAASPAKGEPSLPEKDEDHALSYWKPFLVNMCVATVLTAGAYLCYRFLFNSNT
Assay: Inhibition of recombinant PTP1B expressed in Escherichia coli BL21 after 30 mins by spectrophotometry

Row | SMILES | IC50
1 | CC1(C)CC[C@]2(COC(=O)CCCC(=O)O)CC[C@]3(C)C(=CC[C@@H]4[C@@]5(C)CCC(=O)C(C)(C)[C@@H]5CC[C@]43C)[C@@H]2C1 | 6.39 µM
2 | CC1(C)CC[C@]2(COC(=O)CC(=O)O)CC[C@]3(C)C(=CC[C@@H]4[C@@]5(C)CCC(=O)C(C)(C)[C@@H]5CC[C@]43C)[C@@H]2C1 | 4.11 µM
3 | CC1(C)CC[C@]2(COC(=O)c3ccccc3C(=O)O)CC[C@]3(C)C(=CC[C@@H]4[C@@]5(C)CCC(=O)C(C)(C)[C@@H]5CC[C@]43C)[C@@H]2C1 | 3.12 µM
4 | CC1(C)CC[C@]2(COC(=O)CCC(=O)O)CC[C@]3(C)C(=CC[C@@H]4[C@@]5(C)CCC(=O)C(C)(C)[C@@H]5CC[C@]43C)[C@@H]2C1 | 4.61 µM
